The record followed here is paper PMC3602354 (Chemical research in toxicology, 2013).

The subject of data set [1] is WT mouse nasal mucosa microsomes. Nature of the data set: in vitro. Conditions: GS-DCBN formation; WT mouse nasal mucosa microsomes; mean ± SE, n=3. It counts as in vitro ADME.
Data set [2] in a line: in vitro. It counts as in vitro ADME, mouse. Conditions: mouse, pH 7.4.
In data set [3] the test system is Cyp2a5-null mouse nasal mucosa microsomes. Nature of the data set: in vitro. It counts as in vitro ADME.
The nature of data set [4]: in vitro. It counts as in vitro ADME, mouse. Conditions: Cyp2a5-null, mouse, pH 7.4.
Data set [5] is described as follows: in vitro. It counts as in vitro ADME, human. The conditions noted are these: both, human.
Data set [6] has as its system human fetal nasal mucosa microsomes. In words: in vitro. It counts as in vitro ADME. Conditions: GS-DCBN formation; human fetal nasal mucosa microsomes; mean ± SE, n=3.
The subject of data set [7] is nasal mucosa. Nature of the data set: Histopathological analysis of nasal mucosa in DCBN-treated Cyp2a5-null mice. It counts as in vivo, mouse. The conditions noted are these: DCBN 10 mg/kg single i.p., 24 h after treatment.
The test system of data set [8] is nasal mucosa. In words: Histopathological analysis of nasal mucosa in DCBN-treated WT mice. It counts as in vivo, mouse.
[9] abbreviates: Cyp2a5-null vs WT nasal mucosa microsomes.

Each structure is given as a SMILES string. Several values for one entry are separate records, joined by “and”; a condition that tells them apart may be missing. Equal entries are not always repeated.

On to `N#Cc1c(Cl)cccc1Cl` [DCBN, 2,6-dichlorobenzonitrile], for which the Vmax in data set [1] is 1050 ± 30 pmol/min/mg protein; in data set [3] (GS-DCBN formation, Cyp2a5-null mouse nasal mucosa microsomes, mean ± SE, n=3), 253 ± 12 pmol/min/mg protein; in data set [6], 0.14 pmol/min/mg protein and 0.14 ± 0.01 pmol/min/mg protein. The Km in the data set “in vitro [2]” was 0.43 ± 0.04 µM; in the data set “in vitro [4]”, 4.2 ± 0.6 µM. Besides, the “decrease in apparent Vmax compared to WT mice” value in data set [3] (setting [9]) was ~ 4 fold. For the same compound, the “increase in apparent Km compared to WT mice” value in data set [3] (setting [9]) was ~ 10 fold. Besides, the “reduction of efficiency for GS-DCBN formation compared to WT mice” value in data set [3] (setting [9]) was ~ 40 fold. In addition, the Km at 60 min in “in vitro [5]” is 0.45 ± 0.1 µM. Further, the “histopathology of nasal mucosa” value is “essentially normal olfactory epithelium and BG” in the data set on nasal mucosa [7]; “moderate injury to the nasal mucosa” in the data set with nasal mucosa [8] (DCBN 10 mg/kg single i.p., 24 h after treatment); “essentially normal morphology” in the data set on nasal mucosa [8] (DCBN 4 × 1 mg/kg s.c., 1.5-h intervals, 24 h after last treatment).
